{Fluor} = fluorophore: 5-carboxyfluorescein (FAM) or Alexa Fluor 488
Tests used:
DU145 cells [1] = assay: Uptake of fluorophore-labeled oligonucleotides by flow cytometry; type: cell-based
Protocol: FIG. 1 are graphs showing that AS1411 cell internalization is an active process. Cells were plated 18 h before uptake analysis. After incubation as described, cells were washed with ice-cold PBS, incubated with 1 μg/ml 7-AAD, harvested and resuspended in 1% paraformaldehyde containing 2 μg/ml actinomycin D, then analyzed by flow cytometry. (Panel A) DU145 cells were incubated at 37° C. with fresh complete DMEM medium containing 10 μM FL-AS1411 (black line) or 10 μM FL-CRO (gray line) for the time indicated. (Panel B) DU145 cells were incubated for 2 h at 37° C. in complete or serum-free DMEM medium containing 10 μM FL-AS1411, or 10 μM FL-CRO, or no oligonucleotide. (Panel C) Various cell lines were incubated with 10 μM FL-AS1411 (black outline histogram), 10 μM FL-CRO (gray outline histogram) or without DNA (solid gray histogram) at 37° C. or 4° C. for 2 h. All experiments were repeated at least three times. Data are mean of three independent samples; bars, SE; *(p<0.05).
FIG. 2 are graphs showing that AS1411 is internalized by different endocytic mechanisms in DU145 cancer cells and in non-malignant Hs27 cells. DU145 or Hs27 cells were plated 18 h before uptake analysis. Cells were pre-treated as described with inhibitor (gray histogram) or the corresponding vehicle control (black histogram) before addition of 10 μM FL-AS1411 and incubation at 37° C. for 2 h. After incubation, cells were harvested and analyzed by flow cytometry. Pre-treatment conditions were at 37° C. with: (Panel A) 5 μM Cytochalasin D for 30 min; (Panel B) 80 μM Dynasore for 30 min; or (Panel C) 3 mM amiloride for 1 h. All experiments were repeated at least three times and representative data are shown. Solid gray histograms represent background autofluorescence of unstained cells.
DU145 cells were transfected for 48 h without siRNA (mock, M), or with 30 nM of one of three different nucleolin siRNAs (NCL1, NCL2, NCL3) or a control siRNA (scramble, S), or contransfected with 10 nM of each nucleolin siRNAs (mix). (Panel A) Cells were lysed and total cell lyses were analyzed by Western blotting using the antibodies shown. (Panel B) Cell-surface proteins from intact transfected DU145 cells were labeled covalently with membrane-impermeable biotinylating agent. Cells were lysed, then biotinylated plasma membrane proteins were captured with streptavidin-agarose beads and analyzed by blotting with anti-nucleolin antibody (upper panel). After stripping, the membrane was reprobed with antibodies for a plasma membrane marker (anti-pan Cadherin) and a nuclear marker (anti-histone 3) to confirm the fractionation. Total lysate (Lys) was used as control. (Panel C) The medium of transfected cells was replaced by fresh complete DMEM medium containing no oligonucleotide (gray dashed histogram) or 10 μM FL-CRO (gray solid line histogram) or 10 μM FL-AS1411 (black solid line histogram) and incubated at 37° C. for 2 h. After incubation, cells were harvested and analyzed by flow cytometry.
DU145 cells were plated 18 hr before uptake analysis. Cell medium was changed with fresh complete DMEM medium containing different concentrations of FL-AS1411 (black line) or FL-CRO (gray line), and incubated at 37° C. for 2 hrs. After incubation, cells were harvested and analyzed by flow cytometry.
FIG. 9 are graphs showing the effects of inhibitors on various endocytic pathways. DU145 or Hs27 cells were plated 18 hr before uptake analysis. (Panel A) DU145 cells were pre-treated with dynamin inhibitor, […] Dynasore (black histogram) or DMSO (gray histogram) for 30 min at 37° C. After pre-treatment, cells were treated with […] transferrin conjugated with Alexa Fluor 488 for 30 min at 37° C. (Panel B) DU145 and Hs27 cells were pre-treated with 3 mM amiloride (black histogram) or vehicle (serum-free medium, gray histogram) for 1 h at 37° C. After pre-treatment, FL-CRO was added at a concentration of 10 μM and incubated at 37° C. for 2 h. After incubation, cells were harvested and analyzed by FACS. […]

DU145 cells [2] = assay: Confocal microscopy localization and co-localization; type: cell-based
Protocol: FIG. 3 are photographs showing that AS1411 co-localizes with the macropinocytic marker, dextran. DU145 or Hs27 cells were incubated with the reagents indicated, then washed and fixed. Nuclei were stained with DAPI (blue). The distribution of markers was visualized by confocal microscopy and fluorescent images were overlaid to determine co-localization as indicated by the yellow color. (Panel A) 10 μM AS1411 labeled with Alexa Fluor 488 (green) and 0.2 mg/ml dextran-10K, macropinocytic marker, labeled with Alexa Fluor 594 (red) for 2 h at 37° C. (Panel B) Experiments similar to those in Panel A but using FL-CRO in place of FL-AS1411. (Panel C) Cells incubated with 5 μg/ml transferrin labeled with Alexa Fluor 488 (green) and 0.2 mg/ml dextran-10K labeled with Alexa Fluor 594 (red) for 30 min at 37° C. (Panel D) DU145 cells incubated with 5 μg/ml transferrin labeled with Alexa Fluor 594 (red) and 10 μM AS1411 labeled with Alexa Fluor 488 (green) for 30 min at 37° C. Scale bars, 10 μm.
Cells (4×10^4) in fresh supplemented culture medium were plated on 18 mm diameter glass cover slips for 18 h. The media was removed and replaced with serum-free medium containing 10 μM oligodeoxynucleotide, dextran-10K, or transferrin and incubated as describe in the Description of the Drawings. After incubation, cells were washed 3 times with ice-cold PBS, fixed in 4% paraformaldehyde in PBS for 30 min at room temperature, and washed three times with PBS. After washing, the cover slips were mounted on glass slides with ProLong Antifade (Molecular Probes) according to the manufacturer's directions to inhibit photobleaching. Immunofluorescence was documented with an LSM 510 inverted confocal laser-scanning microscope (Carl Zeiss, Oberkochen, Germany) equipped with an Omnichrome argon-krypton laser. Images were obtained with a Zeiss Plan-Apo 63× oil immersion objective (1.4 NA).

DU145 cells [3] = type: cell-based; settings: 4 days, 10 μM AS1411
Protocol: DU145 cells were incubated for 4 days in the presence of 10 μM AS1411 with 3-MA at the concentration indicated, and cell number was assessed by MTT assay.
It also appears unlikely that AS1411-induced cell death is due to autophagy. […] Further evidence that supports the idea that AS1411 can induce methuosis comes from the similarity between the appearance of cells treated with AS1411 and published images of glioblastoma cells undergoing Ras-induced methuosis.

MCF10A = assay: Uptake of AS1411 by macropinocytosis (MP); type: cell-based, human; settings: Non-cancer, breast epithelial
Source text: It has recently been discovered that AS1411 can stimulate macropinocytosis (MP) in cancer cells and this finding was verified by several different methods and in multiple cancer cell lines (Table 1).

Substance	uptake compared with FL-AS1411 (DU145 cells [1]; 10 μM, 37° C., time course)	uptake compared with FL-AS1411 (confocal microscopy) (DU145 cells [2]; 10 μM, 2 h)	saturability of uptake (dose-response) (DU145 cells [1]; 37° C. for 2 hrs)	co-localization with transferrin (DU145 cells [2]; 5 μg/ml transferrin, 10 μM AS1411 labeled with Alexa Fluor 488, 30 min at 37° C.)	effect in combination with 3-MA (DU145 cells [3])	Update by MP? (MCF10A)
5′-Fluor-d(TTTCCTCCTCCTCCTTCTCCTCCTCCTCC) (DNA TTTCCTCCTCCTCCTTCTCCTCCTCCTCC; DNA, 5' {Fluor}, backbone and methylation of C not given here) [FL-CRO, reference compound]	consistently much lower than FL-AS1411	much lower than FL-AS1411				
5′-d(GGTGGTGGTGGTTGTGGTGGTGGTGG) [AS1411]			did not appear to have saturable uptake	non-overlapping vesicles	additive	Low

Reference: US20130065227A1, “METHODS OF INCREASING MACROPINOCYTOSIS IN CANCER CELLS” (priority 2010, published 2013)
